Consider 19 compounds from US9505750B2, “5-aminocyclylmethyl-oxazolidin-2-one derivatives” (priority 2007, dated 2016).

The structures appear in SMILES notation. In brackets after ≈: the same amount, converted by molar mass.

This test has as its system M. catarrhalis A894. Briefly: MIC determination by microdilution in cation-adjusted Mueller-Hinton Broth (NCCLS). To be noted: Moraxella catarrhalis, pH 7.2-7.3. It is filed as cell-based. As for the experimental part: These assays have been performed following the description given in “Methods for dilution Antimicrobial Susceptibility Tests for Bacteria that Grow Aerobically, 4th ed.; Approved standard: NCCLS Document M7-A4; National Committee for Clinical Laboratory Standards: Villanova, Pa., USA, 1997”. Minimal inhibitory concentrations (MICs; mg/l) were determined in cation-adjusted Mueller-Hinton Broth (BBL) by a microdilution method following NCCLS guidelines (National Committee for Clinical Laboratory Standards. Methods for Dilution Antimicrobial Susceptibility). The pH of the test medium was 7.2-7.3. All Example compounds were tested against several Gram-positive and Gram-negative bacteria.

For the compound `COc1ccc2nccc(NC3CN(C[C@@H]4CN(c5ccc6c(c5)NC(=O)CO6)C(=O)O4)C3)c2n1` [Example 24, 6-{(R)-5-[3-(6-methoxy-[1,5]naphthyridin-4-ylamino)-azetidin-1-ylmethyl]-2-oxo-oxazolidin-3-yl}-4H-benzo[1,4]oxazin-3-one], the MIC was at most 0.031 µg/mL.

`COc1ccc2nccc(NC3CN(C[C@@H]4CN(c5ccc6c(c5)NC(=O)CO6)C(=O)O4)C3)c2c1` [Example 25, 6-{(R)-5-[3-(6-methoxy-quinolin-4-ylamino)-azetidin-1-ylmethyl]-2-oxo-oxazolidin-3-yl}-4H-benzo[1,4]oxazin-3-one] had an MIC of at most 0.031 µg/mL.

Compound `COc1ccc2ncc(F)c(CNC3CN(C[C@@H]4CN(c5ccc6c(c5)NC(=O)CO6)C(=O)O4)C3)c2n1` [Example 26, 6-((R)-5-{3-[(3-fluoro-6-methoxy-[1,5]naphthyridin-4-ylmethyl)-amino]-azetidin-1-ylmethyl}-2-oxo-oxazolidin-3-yl)-4H-benzo[1,4]oxazin-3-one] came in with an MIC of at most 0.031 µg/mL.

In turn, `COc1ccc2nccc(CNC3CN(C[C@@H]4CN(c5ccc6c(c5)NC(=O)CO6)C(=O)O4)C3)c2n1` [Example 27, 6-((R)-5-{3-[(6-methoxy-[1,5]naphthyridin-4-ylmethyl)-amino]-azetidin-1-ylmethyl}-2-oxo-oxazolidin-3-yl)-4H-benzo[1,4]oxazin-3-one] returned an MIC of at most 0.031 µg/mL.

Take `COc1ccc2ncc(F)c(CNC3CN(C[C@@H]4CN(c5ccc6c(c5)NC(=O)CO6)C(=O)O4)C3)c2c1` [Example 28, 6-((R)-5-{3-[(3-fluoro-6-methoxy-quinolin-4-ylmethyl)-amino]-azetidin-1-ylmethyl}-2-oxo-oxazolidin-3-yl)-4H-benzo[1,4]oxazin-3-one]: the MIC was at most 0.031 µg/mL.

Compound `COc1ccc2nccc(CNC3CN(C[C@@H]4CN(c5ccc6c(c5)NC(=O)CO6)C(=O)O4)C3)c2c1` [Example 29, 6-((R)-5-{3-[(6-methoxy-quinolin-4-ylmethyl)-amino]-azetidin-1-ylmethyl}-2-oxo-oxazolidin-3-yl)-4H-benzo[1,4]oxazin-3-one] yielded an MIC of 0.063 µg/mL (≈ 0.129 µM).

The compound `COc1ccc2ncnc(OCC3CN(C[C@@H]4CN(c5ccc6c(c5)OCCO6)C(=O)O4)C3)c2c1` [Example 30, (R)-3-(2,3-dihydro-benzo[1,4]dioxin-6-yl)-5-[3-(6-methoxy-quinazolin-4-yloxymethyl)-azetidin-1-ylmethyl]-oxazolidin-2-one] gave an MIC of 0.063 µg/mL (≈ 0.132 µM).

Consider `COc1ccc2ncnc(OC3CCN(C[C@@H]4CN(c5ccc6c(c5)NC(=O)CO6)C(=O)O4)CC3)c2c1` [Example 31, 6-{(R)-5-[4-(6-methoxy-quinazolin-4-yloxy)-piperidin-1-ylmethyl]-2-oxo-oxazolidin-3-yl}-4H-benzo[1,4]oxazin-3-one], for which the MIC is at most 0.031 µg/mL.

`COc1cnc2cccc(CNC3CN(C[C@@H]4CN(c5ccc6c(c5)NC(=O)CO6)C(=O)O4)C3)c2n1` [Example 34, 6-((R)-5-{3-[(3-methoxy-quinoxalin-5-ylmethyl)-amino]-azetidin-1-ylmethyl}-2-oxo-oxazolidin-3-yl)-4H-benzo[1,4]oxazin-3-one] had an MIC of 0.063 µg/mL (≈ 0.128 µM).

`COc1ccc2nccc(NC3CCN(C[C@@H]4CN(c5ccc6c(c5)NC(=O)CO6)C(=O)O4)CC3)c2n1` [Example 35, 6-{(R)-5-[4-(6-methoxy-[1,5]naphthyridin-4-ylamino)-piperidin-1-ylmethyl]-2-oxo-oxazolidin-3-yl}-4H-benzo[1,4]oxazin-3-one] returned an MIC of at most 0.031 µg/mL.

For the compound `COc1ccc2nccc(NC3CN(C[C@@H]4CN(c5ccc6c(c5)NC(=O)CS6)C(=O)O4)C3)c2n1` [Example 36, 6-{(R)-5-[3-(6-methoxy-[1,5]naphthyridin-4-ylamino)-azetidin-1-ylmethyl]-2-oxo-oxazolidin-3-yl}-4H-benzo[1,4]thiazin-3-one], the MIC was at most 0.031 µg/mL.

As to `COc1ccc2nccc(NC3CN(C[C@@H]4CN(c5ccc6c(c5)NC(=O)CS6)C(=O)O4)C3)c2c1` [Example 37, 6-{(R)-5-[3-(6-methoxy-quinolin-4-ylamino)-azetidin-1-ylmethyl]-2-oxo-oxazolidin-3-yl}-4H-benzo[1,4]thiazin-3-one], the MIC was 0.125 µg/mL (≈ 0.254 µM).

The compound `N#Cc1ccc2nccc(NC3CN(C[C@@H]4CN(c5ccc6c(c5)NC(=O)CS6)C(=O)O4)C3)c2c1` [Example 38, 4-{1-[(R)-2-oxo-3-(3-oxo-3,4-dihydro-2H-benzo[1,4]thiazin-6-yl)-oxazolidin-5-ylmethyl]-azetidin-3-ylamino}-quinoline-6-carbonitrile] returned an MIC of 0.125 µg/mL (≈ 0.257 µM).

Compound `O=C1CSc2ccc(N3C[C@@H](CN4CC(Nc5ccnc6ccc(F)cc56)C4)OC3=O)cc2N1` [Example 39, 6-{(R)-5-[3-(6-fluoro-quinolin-4-ylamino)-azetidin-1-ylmethyl]-2-oxo-oxazolidin-3-yl}-4H-benzo[1,4]thiazin-3-one] yielded an MIC of 0.063 µg/mL (≈ 0.131 µM).

`COc1ccc2nccc(NC3CCN(C[C@@H]4CN(c5ccc6c(c5)NC(=O)CS6)C(=O)O4)CC3)c2n1` [Example 40, 6-{(R)-5-[4-(6-methoxy-[1,5]naphthyridin-4-ylamino)-piperidin-1-ylmethyl]-2-oxo-oxazolidin-3-yl}-4H-benzo[1,4]thiazin-3-one] came in with an MIC of at most 0.031 µg/mL.

Turning to `COc1ccc2nccc(NC3CCN(C[C@@H]4CN(c5ccc6c(c5)NC(=O)CS6)C(=O)O4)CC3)c2c1` [Example 41, 6-{(R)-5-[4-(6-methoxy-quinolin-4-ylamino)-piperidin-1-ylmethyl]-2-oxo-oxazolidin-3-yl}-4H-benzo[1,4]thiazin-3-one], the MIC came to 0.5 µg/mL (≈ 0.962 µM).

`COc1ccc2nccc(NC3CN(C[C@@H]4CN(c5ccc6c(c5)OCCO6)C(=O)O4)C3)c2n1` [Example 42, (R)-3-(2,3-dihydro-benzo[1,4]dioxin-6-yl)-5-[3-(6-methoxy-[1,5]naphthyridin-4-ylamino)-azetidin-1-ylmethyl]-oxazolidin-2-one] gave an MIC of at most 0.031 µg/mL.

As for `O=C1COc2ccc(N3C[C@@H](CN4CC(Nc5ccnc6ccc(F)cc56)C4)OC3=O)cc2N1` [Example 43, 6-{(R)-5-[3-(6-fluoro-quinolin-4-ylamino)-azetidin-1-ylmethyl]-2-oxo-oxazolidin-3-yl}-4H-benzo[1,4]oxazin-3-one], 0.25 µg/mL (≈ 0.539 µM) was the least that counted as inhibitory (MIC).

The compound `COc1ccc2nccc(OC3CN(C[C@@H]4CN(c5ccc6c(c5)OCCO6)C(=O)O4)C3)c2c1` [Example 44, (R)-3-(2,3-dihydro-benzo[1,4]dioxin-6-yl)-5-[3-(6-methoxy-quinolin-4-yloxy)-azetidin-1-ylmethyl]-oxazolidin-2-one] yielded an MIC of 8 µg/mL (≈ 17.3 µM).
